Columns and labels:
Format in all cases: in vivo, BALB/c mice
[1] = system: anti-OVA-specific IgG1 subclass antibody; experiment: Adjuvant activity test: anti-OVA-specific IgG1 subclass antibody in serum of OVA-immunized mice (ELISA); conditions: after primary immunization, serum 2 weeks later; OVA 5 μg + compound 0.256 μmol in 5% αCD-added saline (Addavax mixed with saline at 1:1), dorsal-subcutaneous; compared to OVA single administration group
[2] = system: anti-OVA-specific IgG1 and IgG2a subclass antibody production; experiment: Evaluation test of adjuvant activity (overall conclusion from anti-OVA IgG1 and IgG2a production); conditions: compound 0.256 μmol in 5% αCD-added saline with OVA 5 μg, dorsal-subcutaneous
Experimental: 8-Week-old female BALB/c mice were divided into groups (N=6), and each group was primarily immunized by dorsal-subcutaneous administration of (1) ovalbumin (OVA) (5 μg) dissolved in saline as an antigen (OVA single administration group), (2) OVA 5 μg and Addavax™ (mixed with saline at 1:1) dissolved in saline (Addavax™ administration group) as positive control adjuvant, (3) OVA 5 μg and SZ137 0.256 μmol dissolved or dispersed in 5% α-cyclodextrin (hereinafter to be simply referred to as αCD)-added saline (SZ137 administration group), (4) OVA (5 μg) and SZ138 (0.256 μmol) dissolved or dispersed in 5% αCD-added saline (SZ138 administration group), (5) OVA (5 μg) and SZ142 (0.256 μmol) dissolved or dispersed in 5% αCD-added saline (SZ142 administration group), (6) OVA (5 μg) and SZ144 (0.256 μmol) dissolved or dispersed in 5% αCD-added saline (SZ144 administration group), (7) OVA (5 μg) and SZ145 (0.256 μmol) dissolved or dispersed in 5% αCD-added saline (SZ145 administration group), (8) OVA (5 μg) and SZ146 (0.256 μmol) dissolved or dispersed in 5% αCD-added saline (SZ146 administration group), (9) OVA (5 μg) and SZ147 (0.256 μmol) dissolved or dispersed in 5% αCD-added saline (SZ147 administration group), (10) OVA (5 μg) and SZ148 (0.256 μmol) dissolved or dispersed in 5% αCD-added saline (SZ148 administration group), each per mouse. Two week later, the secondary immunization was carried out by dorsal-subcutaneous administration of solutions or dispersions similar to those of the above-mentioned (1)-(10) again. […]
To a 96 well plate was added 5 μg/ml OVA at 100 µl/well, and the mixture was incubated at 4° C. overnight. After incubation, the mixture was washed three times with 200 μl of PBS-T (PBS (phosphate buffered saline)+0.05% (v/v) Tween 20) per well, and blocked with 100 μl of 5% FCS (fetal calf serum)/PBS solution per well at room temperature for 1-2 hr. Thereafter, the mixture was washed three times with PBS-T (200 μl/well), a diluted serum sample (100 l/well) or the same amount of 5% FCS/PBS solution as a control was added, and the mixture was incubated at 37° C. for 1 hr. To calculate concentration of the antibody, the standard of an anti-OVA-specific IgG1 subclass antibody diluted with 2% FCS/PBS solution was added at 100 ng/ml, 50 ng/ml, 25 ng/ml, 12.5 ng/ml, 6.25 ng/ml, 3.125 ng/ml, 1.56 ng/ml, 0.781 ng/ml, 0.391 ng/ml, 0.195 ng/ml, 0.098 ng/ml, 0 ng/ml, per 1 well. When an anti-OVA-specific IgG2a subclass antibody was measured, the standard of an anti-OVA-specific IgG2a subclass antibody was added at 50 ng/ml, 25 ng/ml, 12.5 ng/ml, 6.25 ng/ml, 3.125 ng/ml, 1.56 ng/ml, 0.781 ng/ml, 0.391 ng/ml, 0.195 ng/ml, 0.098 ng/ml, 0.049 ng/ml, 0 ng/ml, per 1 well. Thereafter, similar to the samples, the mixture was washed five times with PBS-T (200 μl/well), a diluted biotinylated anti-mouse IgG1 antibody and IgG2a antibody were added (100 μl/well), and the mixture was incubated at 37° C. for 45 min. Thereafter, the mixture was washed five times with PBS-T (200 μl/well), a diluted anti-biotin-HRP antibody was added (100 μl/well), and the mixture was incubated at 37° C. for another 30 min. Thereafter, the mixture was washed five times with PBS-T (200 μl/well), TMB substrate solution was added (100 μl/well), and the mixture was incubated at room temperature for 10-15 min. Thereafter, a reaction quenching liquid (2N sulfuric acid solution) was added (50 l/well) to discontinue a color developing reaction, and the absorbance (OD Value=450 nm) was measured by a microplate reader. A standard curve was drawn from the measured OD values, and the concentration was calculated. […]

[3] = system: anti-OVA-specific IgG2a subclass antibody; experiment: Adjuvant activity test: anti-OVA-specific IgG2a subclass antibody in serum of OVA-immunized mice (ELISA); conditions: after primary immunization, serum 2 weeks later; OVA 5 μg + compound 0.256 μmol in 5% αCD-added saline (Addavax mixed with saline at 1:1), dorsal-subcutaneous; compared to OVA single administration group
[4] = conclusion from IgG1/IgG2a after primary immunization

Row | Compound | anti-OVA-specific IgG1 subclass antibody production [1] | adjuvant activity [2, 4] | anti-OVA-specific IgG2a subclass antibody production [3] | adjuvant activity ([2]; conclusion from IgG1/IgG2a after secondary immunization)
1 | CCCCCCCCCCCCCCCCCCCCCC(=O)N[C@@H](CSSC[C@H](NC(=O)CCCCCCCCCCCCCCCCCCCCC)C(=O)NCCCCCCCCCCCC)C(=O)NCCCCCCCCCCCC [SZ173, N-[(1R)-1-[[[(2R)-2-(docosanoylamino)-3-(dodecylamino)-3-oxo-propyl]disulfanyl]methyl]-2-(dodecylamino)-2-oxo-ethyl]docosanamide] | showed a tendency to increase | has an adjuvant activity | significantly increased | –
2 | CCCCCCCCCCCCNC(=O)[C@H](CCCNC(=N)N)N(Cc1ccccc1)Cc1ccccc1 [SZ174, (2S)-2-(Dibenzylamino)-N-dodecyl-5-guanidino-pentanamide] | tended to increase | have an adjuvant activity | significantly increased | –
3 | CCCCCCCCCCCCCCCC(=O)NCCCCCNC(=N)N [SZ175, N-(5-guanidinopentyl)hexadecanamide] | tended to increase | have an adjuvant activity | significantly increased | –
4 | CCCCCCCCCCCCCCCCCCCCCC(=O)NCCCCCNC(=N)N.Cl [SZ176, N-(5-guanidinopentyl)docosanamide] | tended to increase | have an adjuvant activity | significantly increased | –
5 | CCCCCCCCCCCCNC(=O)[C@H](CCCNC(=N)N)NC(=O)C(=O)CCCCCC.Cl [SZ177, N-[(1S)-1-(dodecylcarbamoyl)-4-guanidino-butyl]-2-oxo-octanamide] | tended to increase | have an adjuvant activity | significantly increased | –
6 | CCCCCCCCCCCCCCCCCCOC(=O)N[C@@H](CCCNC(=N)N)C(=O)NCCCCCCCCCCCC.Cl [SZ186, octadecyl N-[(1S)-1-(dodecylcarbamoyl)-4-guanidino-butyl]carbamate hydrochloride] | significant enhancement | have an adjuvant activity | significant enhancement | have an adjuvant activity
